Results: patent US20200080053A1, “USE OF PEPTIDE COMPOUNDS FOR PROMOTING SURVIVAL, GROWTH AND CELL DIFFERENTIATION” (Axoltis Pharma, priority 2016, published 2020)
Square brackets hold non-standard residues; d marks the D form. Ends that are not written are not given here. Abu = CC[C@H](N)C(=O)O

Legend:
Assay type in all cases: cell-based
[1] = system: human mesenchymal stem cells (hMSC); assay: Cell proliferation of hMSCs depending on the culture conditions; details: for number of MSC: add-on of ATRA (from J5); for effect on cell proliferation (number of MSCs): whatever the conditions / FBS concentration (2% or 10% FBS)
Excerpt: Adult human bone marrow mononuclear cells Ficoll-extracted from two donors were obtained from Lonza. Cells were passaged once a week. The human mesenchymal stem cells (hMSC) were selected by plastic adherence and expanded by plating 50 000 cells/cm^2 in Modified Eagle Medium Alpha (MEMalpha, MacoPharma) supplemented with 10% Fetal Bovine Serum (FBS, PAA Laboratoires) and 0.1% Penicilline/Streptomycine (P/S, Lonza). The culture medium was changed after 3 days and then every day. After 2 to 5 weeks of culture at 37° C. in a humid environment and under 5% CO2, hMSC were harvested by trypsinization. The phenotype was confirmed by FACS analysis (BD Bioscience, BD LSR II) with CD73, CD90 and CD105 (positive), as well as CD34 and CD45 (negative) (Table 1).
(§1) To investigate the neural differentiation capacity of the peptides, 25 cm^2 flasks and 12-wells culture plates were coated with sterile aqueous solutions of either NX210 or NS640 at a concentration of 80 μg/cm^2. Coatings were carried out at 37° C. and 5% CO2 over-night prior to cell plating.
On Day 0 (D0), hMSC were seeded at a concentration of 3,000 cells/cm^2 in pre-coated 25 cm^2 flasks or 12-well culture plates in complete medium and culture was placed at 37° C. in a humid environment and under 5% CO2. After 24h, medium was changed and replaced by different combinations of media containing either: MEMalpha—bFGF 12.5 ng/mL—FBS 2%—P/S 0.1%; MEMalpha—bFGF 12.5 ng/mL—FBS 10%—P/S 0.1%; MEMalpha—FBS 2%—P/S 0.1% (control condition); MEMalpha—FBS 10%—P/S 0.1% (control condition). The cells were placed at 37° C. in a humid environment and under 5% CO2, and medium was changed twice a week. […] thus was changed with: MEMalpha—ATRA […]—FBS 2%—P/S 0.1%; MEMalpha—ATRA 20 μM—FBS 10%—P/S 0.1%; MEMalpha—FBS 2%—P/S 0.1% (control condition); MEMalpha—FBS 10%—P/S 0.1% (control condition). The cells were placed at 37° C. in a humid environment and under 5% CO2. Medium was changed twice a week. On Day 15 (D15), cells were harvested by trypsinization for mRNA extraction or fixed immunocytochemical analysis.

[2] = system: human mesenchymal stem cells (hMSC); assay: Neural differentiation of hMSCs: gene expression by real-time PCR
Experimental: as §1
On Day 0 (D0), hMSC were seeded at a concentration of 3,000 cells/cm^2 in pre-coated 25 cm^2 flasks or 12-well culture plates in complete medium and culture was placed at 37° C. in a humid environment and under 5% CO2. After 24h, medium was changed and replaced by different combinations of media containing either: MEMalpha—bFGF 12.5 ng/mL—FBS 2%—P/S 0.1%; MEMalpha—bFGF 12.5 ng/mL—FBS 10%—P/S 0.1%; MEMalpha—FBS 2%—P/S 0.1% (control condition); MEMalpha—FBS 10%—P/S 0.1% (control condition). The cells were placed at 37° C. in a humid environment and under 5% CO2, and medium was changed twice a week. On Day 8, medium was replaced by medium containing ATRA in the place of bFGF and thus was changed with: MEMalpha—ATRA […]—FBS 2%—P/S 0.1%; MEMalpha—ATRA 20 μM—FBS 10%—P/S 0.1%; MEMalpha—FBS 2%—P/S 0.1% (control condition); MEMalpha—FBS 10%—P/S 0.1% (control condition). The cells were placed at 37° C. in a humid environment and under 5% CO2. Medium was changed twice a week. […]
Total RNA was extracted using RNAeasy total purification kit following instructions of the manufacturer (Qiagen). cDNA were generated using a High-Capacity cDNA Reverse Transcription kit (Applied Biosystems) as described by the manufacturer.
The expression levels of genes (GFAP, Musashi 1, Nestin, Beta3-Tubuline, MAP-2 and GAPDH) were analyzed by real-time PCR using TaqMan gene Expression Master Mix (Applied Biosystems) on the Applied Biosystems 7900 Real time PCR system (Life technologies). Samples were analyzed in triplicates. Data were normalized using the GAPDH gene as an internal control and relative quantification (RQ) of the genes in a sample was determined according to the equation 2^−Δct.

[3] = system: human mesenchymal stem cells (hMSC); assay: Neural differentiation of hMSCs: immunocytochemical analysis (Nestin, MAP-2); details: bFGF; for MAP-2 marker expression (immunocytochemistry staining) / Nestine marker expression (immunocytochemistry staining): 2% FBS, with or without peptide coating (FIG. 8); for Nestine expression (staining intensity): with or without peptide coating, compared to the control condition (FIG. 8)
Experimental: as §1
On Day 0 (D0), hMSC were seeded at a concentration of 3,000 cells/cm^2 in pre-coated 25 cm^2 flasks or 12-well culture plates in complete medium and culture was placed at 37° C. in a humid environment and under 5% CO2. After 24h, medium was changed and replaced by different combinations of media containing either: MEMalpha—bFGF 12.5 ng/mL—FBS 2%—P/S 0.1%; MEMalpha—bFGF 12.5 ng/mL—FBS 10%—P/S 0.1%; MEMalpha—FBS 2%—P/S 0.1% (control condition); MEMalpha—FBS 10%—P/S 0.1% (control condition). The cells were placed at 37° C. in a humid environment and under 5% CO2, and medium was changed twice a week. On Day 8, medium was replaced by medium containing ATRA in the place of bFGF and thus was changed with: MEMalpha—ATRA […]—FBS 2%—P/S 0.1%; MEMalpha—ATRA 20 μM—FBS 10%—P/S 0.1%; MEMalpha—FBS 2%—P/S 0.1% (control condition); MEMalpha—FBS 10%—P/S 0.1% (control condition). The cells were placed at 37° C. in a humid environment and under 5% CO2. Medium was changed twice a week. On Day 15 (D15), cells were harvested by trypsinization for mRNA extraction or fixed immunocytochemical analysis.
Assessment of differentiation was performed by gene expression after extraction of mRNA at various time point (DO, D1, D8 and D15), and immunocytochemical analysis performed at the end of the culture period (D15).
Immunocytochemical analyses were carried out on cells fixed in 4% paraformaldehyde and using standard protocols. After blocking with Triton 1×0.1%/BSA 5% during 30 min, cells were incubated with antibodies directed against Nestin (Millipore) or MAP-2 (Sigma) overnight at +4° C. After washing, appropriate FITC or Cyandidine-5 labelled secondary antibody are added. Nuclei were counterstained with Hoescht 33258 (Sigma). Obervations were performed using Leica TCS LSI system.

[4] = patient no 1, day 5, bFGF 10% without ATRA (FIG. 6)
[5] = patient no 1, bFGF 10% without ATRA (FIG. 6)
[6] = patient no 1, bFGF 10% without ATRA, with respect to J0 (FIG. 6)
[7] = patient no 2, bFGF 10% without ATRA (FIG. 7)
[8] = patient no 2, bFGF 10% without ATRA, with respect to J0 (FIG. 7)

Compound: CC1=C(/C=C/C(C)=C/C=C/C(C)=C/C(=O)O)C(C)(C)CCC1 [ATRA, reference compound]
- number of MSC ([1]; 2% FBS): small difference
- number of MSC ([1]; 10% FBS): decrease

Compound: W-S-G-W-S-S-Abu-S-R-S-Nm (WSGWSS[Abu]SRS-NH2; N-terminus assumed; SMILES CC[C@H](NC(=O)[C@H](CO)NC(=O)[C@H](CO)NC(=O)[C@H](Cc1c[nH]c2ccccc12)NC(=O)CNC(=O)[C@H](CO)NC(=O)[C@@H](N)Cc1c[nH]c2ccccc12)C(=O)N[C@@H](CO)C(=O)N[C@@H](CCCNC(=N)N)C(=O)N[C@@H](CO)C(N)=O) [NS640]
- effect on cell proliferation (number of MSCs) [1]: no effect
- effect of peptide coating on the increase in Nestin, βIII-Tubulin and MAP-2 gene expression ([2]; bFGF then ATRA, 2% FBS, peptide coating 80 μg/cm2): does not modify this increase
- MAP-2 expression ([2]; bFGF then ATRA, 10% FBS, peptide coating, vs ×0.75 without peptide (FIG. 5)): 1.46 ×
- Nestin expression ([2]; bFGF then ATRA, 10% FBS, peptide coating, vs ×1.2 without peptide (FIG. 5)): 1.5 ×
- Nestin expression [2, 4]: 2 ×
- βIII-Tubuline expression ([2]; patient no 2, after 5 days of culture, with bFGF (FIG. 7)): maximized
- MAP-2 marker expression (immunocytochemistry staining) [3]: stronger staining
- Nestine marker expression (immunocytochemistry staining) [3]: stronger staining
- MAP-2 protein presence ([3]; 10% FBS, peptide coating (FIG. 8)): makes possible to observe MAP-2 protein presence
- Nestine expression (staining intensity) ([3]; 10% FBS): maximized

Compound: bFGF: growth factor added to the hMSC culture medium at 12.5 ng/mL
- effect on cell proliferation (number of MSCs) [1]: positive effect
- Induction of gene expression: MAP-2 P2 ([2]; 2% FBS, Patient no2): 3
- Musashi-1 expression [2, 5]: decrease
- Nestin expression [2, 5]: decrease
- expression of MAP-2 [2, 6]: 2.3 ×
- expression of βIII Tubulin [2, 6]: 9.3 ×
- Nestin expression [2, 4]: 0.6 ×
- MAP-2 expression ([2]; patient no 2, D5, with bFGF (FIG. 7)): decreased
- Musashi-1 expression [2, 7]: decrease
- Nestin expression [2, 7]: decrease
- Nestin expression ([2]; patient no 2, bFGF 10% without ATRA, with or without coating (FIG. 7)): 0.6 ×
- expression of MAP-2 [2, 8]: 2.3 ×
- expression of βIII Tubulin [2, 8]: 9.3 ×
- MAP-2 marker expression (immunocytochemistry staining) [3]: increases the expression
- Nestine marker expression (immunocytochemistry staining) [3]: increases the expression
- Nestine expression (staining intensity) ([3]; 10% FBS): increases Nestine expression
